Experimental data from the supplement of paper PMC11061612.

Tests used:
Test in all cases: combination Emax (second highest fraction inhibited in the dose matrix, 72 h); higher = more inhibition; extreme values may be limits of the assay
[1] = tested on: COLO-205 (Colorectal Carcinoma)
Procedure, shortened: (§1)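 Cell lines in DMEM/F12 or RPMI with 10% FBS were plated in 1536-well plates, held 24 hours at 37°C, 5% CO2, then given two-drug dose matrices for 72 hours (DMSO typically 0.2%). Viability was read by CellTiter-Glo 2.0 luminescence and scaled as inhibition from 0 (vehicle wells) to 1 (blank wells). Combination Emax is the second-highest inhibition in the matrix; Bliss excess is observed combination effect minus expected EA + EB − EA·EB, EA and EB being single-agent effects.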

[2] = tested on: CaR-1 (Colorectal Carcinoma)
Procedure, shortened: as §1

[3] = tested on: EC-GI-10 (Esophageal Squamous Cell Carcinoma)
Procedure, shortened: as §1

[4] = tested on: KELLY (Neuroblastoma)
Procedure, shortened: as §1

[5] = tested on: KYSE-520 (Esophageal Squamous Cell Carcinoma)
Procedure, shortened: as §1

[6] = tested on: LB831-BLC (Bladder Carcinoma)
Procedure, shortened: as §1

[7] = tested on: LU-135 (Small Cell Lung Carcinoma)
Procedure, shortened: as §1

[8] = tested on: MFE-296 (Endometrial Carcinoma)
Procedure, shortened: as §1

[9] = tested on: NB10 (Neuroblastoma)
Procedure, shortened: as §1

[10] = tested on: NCI-H82 (Small Cell Lung Carcinoma)
Procedure, shortened: as §1

[11] = tested on: NOS-1 (Osteosarcoma)
Procedure, shortened: as §1

[12] = tested on: OVCA420 (Ovarian Carcinoma)
Procedure, shortened: as §1

| SMILES | combination Emax [1] | combination Emax [2] | combination Emax [3] | combination Emax [4] | combination Emax [5] | combination Emax [6] | combination Emax [7] | combination Emax [8] | combination Emax [9] | combination Emax [10] | combination Emax [11] | combination Emax [12] |
| --- | --- | --- | --- | --- | --- | --- | --- | --- | --- | --- | --- | --- |
| CN(C)CCCOc1ccc(-c2ccc3ncc4c(c3c2)n(C2CCOCC2)c(=O)n4C)cn1 [AZD0156] + C=CCn1c(=O)c2cnc(Nc3ccc(N4CCN(C)CC4)cc3)nc2n1-c1cccc(C(C)(C)O)n1 [AZD1775] (first compound max 1 µM, partner max 1 µM) | 0.341 | 0.128 | 0.849 | 1 | 0.32 | 0.388 | 0.644 | 0.258 | 0.586 | 0.901 | 0.247 | 0.141 |
| CN(C)CCCOc1ccc(-c2ccc3ncc4c(c3c2)n(C2CCOCC2)c(=O)n4C)cn1 [AZD0156] + CCN(CCO)CCCOc1ccc2c(Nc3cc(CC(=O)Nc4cccc(F)c4)[nH]n3)ncnc2c1 [AZD2811] (first compound max 1 µM, 7x7, partner max 1 µM) | 0.854 | 0.145 | 0.471 | 0.684 | 0.224 | 0.0797 | 0.925 | 0.0192 | 0.315 | 0.45 | 0.119 | 0.0163 |
| CN(C)CCCOc1ccc(-c2ccc3ncc4c(c3c2)n(C2CCOCC2)c(=O)n4C)cn1 [AZD0156] + C[C@@H]1COCCN1C2=NC(=NC(=C2)C3(CC3)[S@](=N)(=O)C)C4=C5C=CNC5=NC=C4 [AZD6738] (first compound max 1 µM, 7x7, partner max 10 µM) | 0.247 | 0.435 | 0.724 | 0.987 | 0.603 | 0.23 | 0.599 | 0.388 | 0.87 | 0.948 | 0.255 | 0.545 |
| C=CCn1c(=O)c2cnc(Nc3ccc(N4CCN(C)CC4)cc3)nc2n1-c1cccc(C(C)(C)O)n1 [AZD1775] + C[C@@H]1COCCN1C2=NC(=NC(=C2)C3(CC3)[S@](=N)(=O)C)C4=C5C=CNC5=NC=C4 [AZD6738] (first compound max 1 µM, partner max 10 µM) | 0.863 | 0.525 | 0.943 | 1 | 0.661 | 0.72 | 0.751 | 0.659 | 0.879 | 0.979 | 0.622 | 0.518 |
| C=CCn1c(=O)c2cnc(Nc3ccc(N4CCN(C)CC4)cc3)nc2n1-c1cccc(C(C)(C)O)n1 [AZD1775] + O=C(c1cc(Cc2n[nH]c(=O)c3ccccc23)ccc1F)N1CCN(C(=O)C2CC2)CC1 [Olaparib] (first compound max 1 µM, partner max 10 µM) | 0.336 | 0.257 | 0.831 | 0.988 | 0.399 | 0.607 | 0.642 | 0.279 | 0.682 | 0.851 | 0.376 | 0.881 |
| CCN(CCO)CCCOc1ccc2c(Nc3cc(CC(=O)Nc4cccc(F)c4)[nH]n3)ncnc2c1 [AZD2811] + C=CCn1c(=O)c2cnc(Nc3ccc(N4CCN(C)CC4)cc3)nc2n1-c1cccc(C(C)(C)O)n1 [AZD1775] (first compound max 1 µM, partner max 1 µM) | 0.854 | 0.223 | 0.849 | 1 | 0.306 | 0.456 | 0.921 | 0.152 | 0.466 | 0.901 | 0.244 | 0.179 |
| CCN(CCO)CCCOc1ccc2c(Nc3cc(CC(=O)Nc4cccc(F)c4)[nH]n3)ncnc2c1 [AZD2811] + C[C@@H]1COCCN1C2=NC(=NC(=C2)C3(CC3)[S@](=N)(=O)C)C4=C5C=CNC5=NC=C4 [AZD6738] (first compound max 1 µM, 7x7, partner max 10 µM) | 0.849 | 0.469 | 0.824 | 0.992 | 0.558 | 0.238 | 0.929 | 0.405 | 0.771 | 0.922 | 0.288 | 0.443 |
| CCN(CCO)CCCOc1ccc2c(Nc3cc(CC(=O)Nc4cccc(F)c4)[nH]n3)ncnc2c1 [AZD2811] + O=C(c1cc(Cc2n[nH]c(=O)c3ccccc23)ccc1F)N1CCN(C(=O)C2CC2)CC1 [Olaparib] (first compound max 1 µM, 7x7, partner max 10 µM) | 0.868 | 0.19 | 0.551 | 0.788 | 0.21 | 0.268 | 0.88 | 0.211 | 0.386 | 0.615 | 0.22 | 0.137 |
| CN(CCO)CC[C@H](CSc1ccccc1)Nc1ccc(S(=O)(=O)NC(=O)c2ccc(N3CCC([C@@H](O)c4ccccc4-c4ccc(Cl)cc4)CC3)cc2)cc1S(=O)(=O)C(F)(F)F [AZD4320] + C1CN(CCC1(C(=O)N[C@@H](CCO)C2=CC=C(C=C2)Cl)N)C3=NC=NC4=C3C=CN4 [Capivasertib] (first compound max 1 µM, 7x7, partner max 3 µM) | 0.831 | 0.21 | 0.204 | 0.229 | 0.329 | 0.338 | 1 | 0.388 | 0.108 | 0.255 | 0.475 | 0.0769 |
| CN(CCO)CC[C@H](CSc1ccccc1)Nc1ccc(S(=O)(=O)NC(=O)c2ccc(N3CCC([C@@H](O)c4ccccc4-c4ccc(Cl)cc4)CC3)cc2)cc1S(=O)(=O)C(F)(F)F [AZD4320] + C=CCn1c(=O)c2cnc(Nc3ccc(N4CCN(C)CC4)cc3)nc2n1-c1cccc(C(C)(C)O)n1 [AZD1775] (first compound max 1 µM, partner max 1 µM) | 0.902 | 0.241 | 0.903 | 1 | 0.552 | 0.634 | 1 | 0.273 | 0.493 | 0.932 | 0.992 | 0.37 |
| CN(CCO)CC[C@H](CSc1ccccc1)Nc1ccc(S(=O)(=O)NC(=O)c2ccc(N3CCC([C@@H](O)c4ccccc4-c4ccc(Cl)cc4)CC3)cc2)cc1S(=O)(=O)C(F)(F)F [AZD4320] + CCN(CCO)CCCOc1ccc2c(Nc3cc(CC(=O)Nc4cccc(F)c4)[nH]n3)ncnc2c1 [AZD2811] (first compound max 1 µM, 7x7, partner max 1 µM) | 0.974 | 0.208 | 0.401 | 0.892 | 0.292 | 0.526 | 1 | 0.11 | 0.408 | 0.512 | 0.667 | 0.174 |
| CN(CCO)CC[C@H](CSc1ccccc1)Nc1ccc(S(=O)(=O)NC(=O)c2ccc(N3CCC([C@@H](O)c4ccccc4-c4ccc(Cl)cc4)CC3)cc2)cc1S(=O)(=O)C(F)(F)F [AZD4320] + CN(C)CCCOc1ccc(-c2ccc3ncc4c(c3c2)n(C2CCOCC2)c(=O)n4C)cn1 [AZD0156] (first compound max 1 µM, 7x7, partner max 1 µM) | 0.77 | 0.0707 | 0.193 | 0.597 | 0.157 | 0.286 | 1 | 0.0842 | 0.215 | 0.282 | 0.611 | 0.174 |
| COc1nnc2ccc(N3CCC(c4ccc(OCCN5CCN(C)C(=O)[C@H]5C)cc4)CC3)nn12 [AZD5153] + CN(CC[C@H](CSC1=CC=CC=C1)NC2=C(C=C(C=C2)S(=O)(=O)NC(=O)C3=CC=C(C=C3)N4CCC(CC4)[C@H](C5=CC=CC=C5C6=CC=C(C=C6)Cl)O)S(=O)(=O)C(F)(F)F)CCO [AZD4320] (first compound max 1 µM, 7x7, partner max 1 µM) | 0.95 |  | 0.275 |  | 0.58 |  | 1 | 0.31 |  |  | 0.936 | 0.813 |
| Cc1c2c(nn1C)CSCc1cc(n(C)n1)CSc1cc(c3ccccc3c1)OCCCc1c(C(=O)O)n(C)c3c-2c(Cl)ccc13 [AZD5991] + C=CCn1c(=O)c2cnc(Nc3ccc(N4CCN(C)CC4)cc3)nc2n1-c1cccc(C(C)(C)O)n1 [AZD1775] (first compound max 1 µM, partner max 1 µM) | 0.684 | 0.283 | 0.946 | 1 |  | 0.519 | 0.581 | 0.585 | 0.6 | 0.966 | 0.982 | 0.399 |
| C[C@@H]1COCCN1c1cc(C2([S@](C)(=N)=O)CC2)nc(-c2ccnc3[nH]ccc23)n1 [AZD6738] + O=C(c1cc(Cc2n[nH]c(=O)c3ccccc23)ccc1F)N1CCN(C(=O)C2CC2)CC1 [Olaparib] (first compound max 10 µM, 7x7, partner max 10 µM) | 0.301 | 0.441 | 0.747 | 0.897 |  | 0.373 | 0.604 | 0.391 | 0.811 | 0.921 | 0.326 | 0.364 |
| CS(=O)(=O)CCNCc1ccc(-c2ccc3ncnc(Nc4ccc(OCc5cccc(F)c5)c(Cl)c4)c3c2)o1 [Lapatinib] + NC1(c2ccc(-c3nc4ccn5c(=O)[nH]nc5c4cc3-c3ccccc3)cc2)CCC1 [MK-2206] (first compound max 10 µM, 7x7, partner max 10 µM) |  | 0.779 |  | 0.959 |  | 0.39 |  | 0.296 | 0.903 | 0.932 |  | 0.884 |
| CCc1c2c(nc3ccc(O)cc13)-c1cc3c(c(=O)n1C2)COC(=O)[C@]3(O)CC [SN-38] + O=C(c1cc(Cc2n[nH]c(=O)c3ccccc23)ccc1F)N1CCN(C(=O)C2CC2)CC1 [Olaparib] (first compound max 0.3 µM, 7x7, partner max 10 µM) | 0.618 | 0.912 |  | 0.884 |  | 0.85 | 0.843 | 0.595 | 0.866 | 0.787 | 0.134 |  |
| C[C@@H](c1ccc2nccn2c1)n1nnc2ncc(-c3cnn(C)c3)nc21 [Savolitinib] + CN(CC[C@H](CSC1=CC=CC=C1)NC2=C(C=C(C=C2)S(=O)(=O)NC(=O)C3=CC=C(C=C3)N4CCC(CC4)[C@H](C5=CC=CC=C5C6=CC=C(C=C6)Cl)O)S(=O)(=O)C(F)(F)F)CCO [AZD4320] (first compound max 1 µM, 7x7, partner max 1 µM) | 0.566 |  | 0.27 |  | 0.2 |  | 1 | 0.2 |  |  | 0.506 | 0.192 |
